Assay: Antiproliferative activity against VEGF-stimulated HUVEC cells assessed as reduction in cell viability at 10 nM preincubated for 1 hr followed by addition of VEGF measured after 72 hrs by MTT assay
Format: functional
Settings: Homo sapiens

| Structure (SMILES) | inhibition at 0.01 µM [%] |
| --- | --- |
| O=C(Cc1ccccc1)C(=O)Nc1cccc(Nc2ccc3c(/C=C/c4ccccc4)n[nH]c3c2)c1 | 11 |
| CC(=O)N1CCCC1C(=O)Nc1cccc(Oc2ccc3c(/C=C/c4ccccc4)n[nH]c3c2)c1 (stereo not given) | 19 |
| CC(C)=NOC(C)C(=O)Nc1cccc(Nc2ccc3c(/C=C/c4ccccc4)n[nH]c3c2)c1 (stereo not given) | -1 |
| O=C(Nc1cccc(Nc2ccc3c(/C=C/c4ccccc4)n[nH]c3c2)c1)C1CC2C=CCC(C2)C1 (stereo not given) | -17 |
| CCNc1ccccc1C(=O)Nc1cccc(C(=O)c2ccc3c(/C=C/c4ccccc4)n[nH]c3c2)c1 | 54 |
| COc1ccc(C#N)c(C(=O)Nc2cccc(Nc3ccc4c(/C=C/c5ccccc5)n[nH]c4c3)c2)c1 | -18 |
| Cc1ccc(CCC(=O)Nc2cccc(Nc3ccc4c(/C=C/c5ccccc5)n[nH]c4c3)c2)cc1 | 29 |
| CC(C)(C)[C@@H](O)C(=O)Nc1cccc(C(=O)c2ccc3c(/C=C/c4ccccc4)n[nH]c3c2)c1 | 27 |
| O=C(c1cccc(NC(=O)c2cc(=O)cco2)c1)c1ccc2c(/C=C/c3ccccc3)n[nH]c2c1 | -13 |
| O=C1NCC(C(=O)Nc2cccc(C(=O)c3ccc4c(/C=C/c5ccccc5)n[nH]c4c3)c2)N1 (stereo not given) | 21 |
| CO[C@H](C(=O)Nc1cccc(Nc2ccc3c(/C=C/c4ccccc4)n[nH]c3c2)c1)c1ccccc1 | 80 |
| O=C1NCC(C(=O)Nc2cccc(Nc3ccc4c(/C=C/c5ccccc5)n[nH]c4c3)c2)N1 (stereo not given) | 7 |
| O=C(Nc1cccc(Nc2ccc3c(/C=C/c4ccccc4)n[nH]c3c2)c1)C1C[C@H]2C=C[C@H]1C2 (stereo not given in full) | 5 |
| O=C(Nc1cccc(Oc2ccc3c(/C=C/c4ccccc4)n[nH]c3c2)c1)c1ccc(=O)oc1 | 5 |
| O=C(CCC(=O)N1CCCC1)Nc1cccc(C(=O)c2ccc3c(/C=C/c4ccccc4)n[nH]c3c2)c1 | 27 |
| Cc1cc(C(=O)Nc2cccc(Oc3ccc4c(/C=C/c5ccccc5)n[nH]c4c3)c2)c(C)[nH]1 | 52 |
| O=C1NCC(C(=O)Nc2cccc(Oc3ccc4c(/C=C/c5ccccc5)n[nH]c4c3)c2)N1 (stereo not given) | 40 |
| O=C(Nc1cccc(Oc2ccc3c(/C=C/c4ccccc4)n[nH]c3c2)c1)C1C[C@H]2C[C@@H]1CCC2O (stereo not given in full) | 52 |
| O=C(Nc1cccc(Nc2ccc3c(/C=C/c4ccccc4)n[nH]c3c2)c1)C(=O)C1=CCCCC1 | 23 |
| CC(=O)N1CCCC1C(=O)Nc1cccc(C(=O)c2ccc3c(/C=C/c4ccccc4)n[nH]c3c2)c1 (stereo not given) | 10 |
| O=C(Cc1c(F)cccc1F)Nc1cccc(Oc2ccc3c(/C=C/c4ccccc4)n[nH]c3c2)c1 | 93 |
| CC(C)CC(=O)C(=O)Nc1cccc(C(=O)c2ccc3c(/C=C/c4ccccc4)n[nH]c3c2)c1 | 81 |
| O=C(CC1=CCCCC1)Nc1cccc(Oc2ccc3c(/C=C/c4ccccc4)n[nH]c3c2)c1 | 92 |
| CN1CCC=C(C(=O)Nc2cccc(C(=O)c3ccc4c(/C=C/c5ccccc5)n[nH]c4c3)c2)C1 | 20 |
| O=C1CC[C@H](C(=O)Nc2cccc(C(=O)c3ccc4c(/C=C/c5ccccc5)n[nH]c4c3)c2)N1 | 32 |
| CN1CCC=C(C(=O)Nc2cccc(Nc3ccc4c(/C=C/c5ccccc5)n[nH]c4c3)c2)C1 | 0 |
| O=C(c1cccc(NC(=O)C2CC3CC(O)C2C3)c1)c1ccc2c(/C=C/c3ccccc3)n[nH]c2c1 (stereo not given) | 64 |

| Structure (SMILES) | inhibition at 0.01 µM [%] |
| --- | --- |
| CC(C)(C)[C@@H](O)C(=O)Nc1cccc(Oc2ccc3c(/C=C/c4ccccc4)n[nH]c3c2)c1 | 30 |
| COc1ccccc1/C=C/C(=O)Nc1cccc(Nc2ccc3c(/C=C/c4ccccc4)n[nH]c3c2)c1 | 10 |
| CC(=O)N1CCC(C(=O)Nc2cccc(Oc3ccc4c(/C=C/c5ccccc5)n[nH]c4c3)c2)CC1 | 42 |
| CCO/C(C)=C/C(=O)Nc1cccc(Oc2ccc3c(/C=C/c4ccccc4)n[nH]c3c2)c1 | 87 |
| O=C(Cc1cc(F)cc(F)c1)Nc1cccc(Nc2ccc3c(/C=C/c4ccccc4)n[nH]c3c2)c1 | 77 |
| C[C@@H](CC(=O)Nc1cccc(Oc2ccc3c(/C=C/c4ccccc4)n[nH]c3c2)c1)c1ccccc1 | 42 |
| C[C@@H]1[C@H](C)[C@H](C)C[C@@H]1C(=O)Nc1cccc(Oc2ccc3c(/C=C/c4ccccc4)n[nH]c3c2)c1 | 23 |
| Cc1cc(C(=O)Nc2cccc(Nc3ccc4c(/C=C/c5ccccc5)n[nH]c4c3)c2)n[nH]1 | 86 |
| CN1CSCCC1C(=O)Nc1cccc(Oc2ccc3c(/C=C/c4ccccc4)n[nH]c3c2)c1 (stereo not given) | 23 |
| O=C(Cc1cc(F)ccc1F)Nc1cccc(C(=O)c2ccc3c(/C=C/c4ccccc4)n[nH]c3c2)c1 | 80 |
| O=C(Nc1cccc(C(=O)c2ccc3c(/C=C/c4ccccc4)n[nH]c3c2)c1)c1ccc(=O)oc1 | -62 |
| O=C(Nc1cccc(Oc2ccc3c(/C=C/c4ccccc4)n[nH]c3c2)c1)C1CC2CC(O)C1C2 (stereo not given) | 38 |
| CC(C)C(=O)Nc1cccc(Nc2ccc3c(/C=C/c4ccccc4)n[nH]c3c2)c1 | 24 |
| CC(=O)N1CCCC1C(=O)Nc1cccc(Nc2ccc3c(/C=C/c4ccccc4)n[nH]c3c2)c1 (stereo not given) | -2 |
| COc1ccc(C#N)c(C(=O)Nc2cccc(Oc3ccc4c(/C=C/c5ccccc5)n[nH]c4c3)c2)c1 | 18 |
| O=C(c1cccc(NC(=O)c2cccc3cc[nH]c23)c1)c1ccc2c(/C=C/c3ccccc3)n[nH]c2c1 | 58 |
| O=C(c1cccc(NC(=O)c2cc(=O)[nH]c(=O)[nH]2)c1)c1ccc2c(/C=C/c3ccccc3)n[nH]c2c1 | 14 |
| CN(C)C(=S)SCC(=O)Nc1cccc(C(=O)c2ccc3c(/C=C/c4ccccc4)n[nH]c3c2)c1 | 25 |
| Cc1cc(C(=O)Nc2cccc(Oc3ccc4c(/C=C/c5ccccc5)n[nH]c4c3)c2)oc(=O)c1 | 83 |
| COC1CCCC(C(=O)Nc2cccc(C(=O)c3ccc4c(/C=C/c5ccccc5)n[nH]c4c3)c2)C1 (stereo not given) | 30 |
| O=C(Cc1cccnc1)Nc1cccc(Oc2ccc3c(/C=C/c4ccccc4)n[nH]c3c2)c1 | 76 |
| CC(C)CC(=O)C(=O)Nc1cccc(Oc2ccc3c(/C=C/c4ccccc4)n[nH]c3c2)c1 | 64 |
| O=C(c1cccc(NC(=O)C2CC3C=CC2CC3)c1)c1ccc2c(/C=C/c3ccccc3)n[nH]c2c1 (stereo not given) | 42 |
| O=C(Cc1cc(F)cc(F)c1)Nc1cccc(Oc2ccc3c(/C=C/c4ccccc4)n[nH]c3c2)c1 | 80 |
| O=C(CC1CC2CCC1C2)Nc1cccc(Oc2ccc3c(/C=C/c4ccccc4)n[nH]c3c2)c1 (stereo not given) | 78 |
| CN1CC(C(=O)Nc2cccc(C(=O)c3ccc4c(/C=C/c5ccccc5)n[nH]c4c3)c2)CC1=O (stereo not given) | 10 |
| CC(C)[C@@H](O)C(=O)Nc1cccc(C(=O)c2ccc3c(/C=C/c4ccccc4)n[nH]c3c2)c1 | 33 |

| Structure (SMILES) | inhibition at 0.01 µM [%] |
| --- | --- |
| O=C(Nc1cccc(Nc2ccc3c(/C=C/c4ccccc4)n[nH]c3c2)c1)c1cc(=O)[nH]c(=O)[nH]1 | 12 |
| CC(C)CC(=O)C(=O)Nc1cccc(Nc2ccc3c(/C=C/c4ccccc4)n[nH]c3c2)c1 | 11 |
| CCC(C(=O)Nc1cccc(Oc2ccc3c(/C=C/c4ccccc4)n[nH]c3c2)c1)c1ccccc1C (stereo not given) | 46 |
| O=C(Nc1cccc(C(=O)c2ccc3c(/C=C/c4ccccc4)n[nH]c3c2)c1)C(=O)C1=CCCCC1 | 45 |
| CC(C)C(=O)Nc1cccc(Oc2ccc3c(/C=C/c4ccccc4)n[nH]c3c2)c1 | 57 |
| O=C(Nc1cccc(Oc2ccc3c(/C=C/c4ccccc4)n[nH]c3c2)c1)c1cccc2cc[nH]c12 | 68 |
| CCO/C(C)=C/C(=O)Nc1cccc(C(=O)c2ccc3c(/C=C/c4ccccc4)n[nH]c3c2)c1 | 72 |
| C[C@@H](CC(=O)Nc1cccc(C(=O)c2ccc3c(/C=C/c4ccccc4)n[nH]c3c2)c1)c1ccccc1 | 52 |
| Cc1ccc(CCC(=O)Nc2cccc(C(=O)c3ccc4c(/C=C/c5ccccc5)n[nH]c4c3)c2)cc1 | 57 |
| O=C1C[C@H](C(=O)Nc2cccc(C(=O)c3ccc4c(/C=C/c5ccccc5)n[nH]c4c3)c2)NC(=O)N1 | -36 |
| O=C(Nc1cccc(Nc2ccc3c(/C=C/c4ccccc4)n[nH]c3c2)c1)c1cccc2[nH]ccc12 | 94 |
| C/C(=C\C(=O)Nc1cccc(Nc2ccc3c(/C=C/c4ccccc4)n[nH]c3c2)c1)c1ccccc1C | 75 |
| Cc1ccc(CCC(=O)Nc2cccc(Oc3ccc4c(/C=C/c5ccccc5)n[nH]c4c3)c2)cc1 | 70 |
| COc1cccc(CC(=O)Nc2cccc(C(=O)c3ccc4c(/C=C/c5ccccc5)n[nH]c4c3)c2)c1 | 87 |
| Cn1cnc(CC(=O)Nc2cccc(Nc3ccc4c(/C=C/c5ccccc5)n[nH]c4c3)c2)c1 | -17 |
| Cc1ccc(C2(C(=O)Nc3cccc(Oc4ccc5c(/C=C/c6ccccc6)n[nH]c5c4)c3)CC2)cc1 | 4 |
| O=C(CCC(=O)N1CCCC1)Nc1cccc(Nc2ccc3c(/C=C/c4ccccc4)n[nH]c3c2)c1 | -8 |
| O=C(CC1CC2CCC1C2)Nc1cccc(C(=O)c2ccc3c(/C=C/c4ccccc4)n[nH]c3c2)c1 (stereo not given) | 75 |
| O=C(Nc1cccc(Nc2ccc3c(/C=C/c4ccccc4)n[nH]c3c2)c1)c1cccc2cc[nH]c12 | 94 |
| CC(C)c1ccccc1C(=O)Nc1cccc(Nc2ccc3c(/C=C/c4ccccc4)n[nH]c3c2)c1 | 79 |
| CC(C)CC(O)C(=O)Nc1cccc(Nc2ccc3c(/C=C/c4ccccc4)n[nH]c3c2)c1 (stereo not given) | 25 |
| CC(C)[C@@H](O)C(=O)Nc1cccc(Nc2ccc3c(/C=C/c4ccccc4)n[nH]c3c2)c1 | 3 |
| C/C(=C\C(=O)Nc1cccc(C(=O)c2ccc3c(/C=C/c4ccccc4)n[nH]c3c2)c1)c1ccccc1C | 99 |
| CC1CC1C(=O)Nc1cccc(C(=O)c2ccc3c(/C=C/c4ccccc4)n[nH]c3c2)c1 (stereo not given) | 96 |
| O=C1C[C@H](C(=O)Nc2cccc(Oc3ccc4c(/C=C/c5ccccc5)n[nH]c4c3)c2)NC(=O)N1 | -6 |
| O=C(Nc1cccc(Nc2ccc3c(/C=C/c4ccccc4)n[nH]c3c2)c1)[C@H]1CCC[C@H]1O | -4 |
